Measurements published in US5077195A, “Polypeptides complementary to peptides or proteins having an amino acid sequence or nucleotide coding sequence at least partially known and methods of design therefor” (Board of Reagents, The University of Texas System, priority 1986, dated 1991).
Each block holds one compound with its values, some of them ahead of it. Where no end group is shown, it is not given here.

Columns and labels:
HTCA = assay: Solid phase radiobinding assay for ACTH in serum on HTCA-coated wells; assay type: binding; conditions: for Log10 Dilution at which 50% inhibition occurred: graphic interpolation
Chain of HTCA (as listed by the source): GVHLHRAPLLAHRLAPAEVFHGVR
Experimental: Complementary peptide (HTCA) was dissolved in phosphate buffered saline (PBS) at 1 mg/ml and 200 ul aliquots were placed in wells of a 96 well polyvinyl assay plate (Microtest III, Falcon Cat. #3911). HTCA was allowed to coat the wells overnight at 4° C. The coating solution was removed and the wells were washed three times with PBS. Radiolabeled ACTH (^125 I-ACTH, New England Nuclear NEX-65) was diluted into PBS containing 0.0005% TWEEN-20 so as to deliver 50 pg (or about 30,000 cpm) in a 20 ul volume.
Serum samples were prepared in a 96 well tissue culture plate by serial dilution of serum into PBS/TWEEN 20 to give a final volume of 180 ul/well. The serum samples were then transferred to the HTCA coated a ssay plate and allowed to incubate. Finally, 20 ul of ^125 I-ACTH solution was added, incubated, and the total sample of 200 ul was removed. After washing three times with PBS, the wells were cut from the plate and counted in a gamma counter.
Serum samples used in this study contained either 50 pg/ml or 500 pg/ml of ACTH added to fetal calf serum (FCS).

[1] = system: mouse adrenal tumor (Y-1) cells; assay: Binding of anti-HTCA to affixed Y-1 cells (ELISA); conditions: FIG. 5
Experimental: Mouse adrenal tumor (Y-1) cells were affixed by glutaraldehyde in flat bottom wells of a microtiter plate. The affixed cells were then treated with rabbit anti-KLH or rabbit anti-HTCA alone or in the presence of several levels of ACTH. After washing, the microtiter wells were treated with goat antibody to rabbit immunoglobulin the goat antibody being coupled to the enzyme alkaline phosphatase. After washing away unbound antibody-phosphatase complex, p-nitrophenyl phosphate was added and the enzyme dependent development of absorbancy at […] was monitored. […] ACTH and anti-HTCA appeared competitive for the same binding site on the mouse adrenal tumor (Y-1) cells. Rabbit anti KLH had no effect (shaded region).

antibody to ACTH = assay: Competition in standard RIA for ACTH; assay type: binding
Experimental: Using a standard Radioimmunoassay (RIA) for ACTH (Immuno Nuclear Corporation, CAT. #2400), the ability of antibodies to a peptide (HTCA) complementary to ACTH to bind with antibodies to ACTH was determined. In a Standard RIA for ACTH, unlabelled ACTH is added in known amounts to a solution of radiolabelled ACTH and antibody to ACTH to compete away the binding of radiolabelled ACTH to its antibody. The amount of radiolabel bound is determined by immunoprecipitating the antibody and counting the radioactivity of the precipitiate.
In the experiment, unlabelled ACTH, immunoglobulin from rabbits immunized with the complementary peptide HTCA, and immunoglobulins from normal rabbits were used to compete with radiolabelled ACTH in the RIA. Immunoglobulin (35 mg/ml) solutions were prepared in phosphate buffered saline, and ACTH and ^125 I-ACTH were prepared as specified in the RIA kit.

[2] = system: mouse adrenal tumor (Y-1) cells; assay: Glucocorticoid hormone production by Y-1 cells (corticosterone RIA); assay type: cell-based; conditions: ACTH 10 microunits/well, 18 hrs
Experimental: An induction of glucocorticoid hormone production by ACTH and anti-HTCA was found with cultured mammalian cells. Duplicate cultures of mouse adrenal tumor (Y-1) cells in microtiter plates were treated with culture media, ACTH (10 microunits/well) or various dilutions of the anti-HTCA.
^a Duplicate cultures of mouse adrenal (Y1) cells in microtiter plate
were treated with culture media, ACTH (10 microunits/well) or the
indicated dilutions of antibody to HTCA. After 18 hrs incubation at
37° in 4% CO2, replicate cultures were pooled and assayed for
glucocorticoid hormone production by a radioimmunoassay (RIA) for […]

bovine gamma-endorphin = target: T1, bovine gamma-endorphin (Bos taurus, UniProt P01190); assay: ELISA binding of gamma-endorphin to coated wells; conditions: gamma-odne 40 ug/well; compared with insulin or BSA coating
T1 construct: purchased Boehringer Mannheim (Indianapolis, IN); host or cells: chemical synthesis
Experimental: The wells of a 96-well round-bottomed microtiter plate were coated (by the procedure described in Example 1B) with gamma-odne (40 ug/well), insulin (20U/well) or bovine serum albumin (BSA, 200 ug/well). Varying concentrations of gamma-endorphin (as shown on the abscissa in FIG. 7) were incubated in the coated wells for 1 hr, after which the plates were thrice washed with PBS-Tween buffer. The wells were then treated with rabbit antibody for gamma-endorphin, washed, and then treated with goat antibody against rabbit immunoglobulin the goat antibody being conjugated to alkaline phosphatase. After washing away unbound goat antibody conjugate, the bound alkaline phosphatase activity was measured with p-nitrophenylphosphate as earlier described. The results of the above manipulations are shown in FIG. 7 where the extent of absorbance at 405 nm reflects the degree of gamma-endorphin binding to wells coated with gamma-odne, insulin or BSA. […] The shaded area in FIG. 7 represents the extent of gamma-endorphin binding in the presence of soluble excess of gamma-odne. Thus it is shown that a second pair of complementary peptides interacts in a manner showing affinity and apparent congruence.

[3] = target: T2, opiate receptors on NG108-15 cells (Mus musculus, UniProt P32300); assay: Binding of ^125 I-beta-endorphin to NG108-15 cells; conditions: read-out: % Inhibition of Specific ^125 I-beta-endorphin
T2 construct: opiate receptors on NG108-15 cells; endogenous in cells; host or cells: NG108-15 cells
T2 sequence (P32300 whole entry): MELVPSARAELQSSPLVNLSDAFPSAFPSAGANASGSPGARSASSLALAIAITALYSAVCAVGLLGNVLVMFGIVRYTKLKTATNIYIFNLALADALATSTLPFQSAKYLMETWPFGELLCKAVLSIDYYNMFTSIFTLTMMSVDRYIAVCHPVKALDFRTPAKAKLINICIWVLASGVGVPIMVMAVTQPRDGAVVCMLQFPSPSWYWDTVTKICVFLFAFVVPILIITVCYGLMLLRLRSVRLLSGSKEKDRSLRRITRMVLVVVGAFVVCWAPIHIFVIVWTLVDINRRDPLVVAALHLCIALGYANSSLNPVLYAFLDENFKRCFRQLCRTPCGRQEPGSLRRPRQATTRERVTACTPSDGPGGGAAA
Experimental: Seventy percent of the total binding was specific by conventional criteria.
For this experiment, ^125 I-beta-endorphin was preincubated 30 minutes with various amounts of the complementary peptide, gamma-ODNE, before a 30 minute (37° C.) incubation with NG108-15 cells in microtiter wells. After the incubation, cells were washed 3 times and cell associated radioactivity wad determined with a Packard Multi-Prias gamma counter.

female ICR mice = assay: Induction of catatonia in mice by i.c. injection of serum; assay type: in vivo; conditions: simultaneous i.c. injection 0.2 mg
Source text: It is well known that large doses of opiate-like substances can induce a catatonic state in animals which is inhibited or reversed by treatment with the opiate antagonist naloxone. In analogy with the results in earlier examples, the ability of a peptide (gamma-ODNE) complementary to an opiate peptide, gamma-endorphin, to induce antibodies that have opiate properties was examined.
Gamma-ODNE (Example II) was conjugated to Keyhole Limpet Hemocyanin ([…]) and used with Freund's adjuvant to generate rabbit antibodies in a conventional manner (see Example 1F). Both normal and induced rabbit sera were injected intracerebroventicularly (i.c.) into female ICR mice.

% Inhibition of Specific Binding (HTCA; 50 pg/ml ACTH in FCS, Log10 Dilution 0): 91%
Log10 Dilution at which 50% inhibition occurred (HTCA; 50 pg/ml serum sample): -1.1
% Inhibition of Specific Binding (HTCA; 50 pg/ml, Log10 Dilution -0.5): 73%
% Inhibition of Specific Binding (HTCA; 50 pg/ml, Log10 Dilution -1.0): 40%
% Inhibition of Specific Binding (HTCA; 50 pg/ml, Log10 Dilution -1.5): 44%
% Inhibition of Specific Binding (HTCA; 50 pg/ml, Log10 Dilution -2.0): 9%
% Inhibition of Specific Binding (HTCA; 50 pg/ml, Log10 Dilution -2.5): 1%
% Inhibition of Specific Binding (HTCA; 50 pg/ml, Log10 Dilution -3.0): 0%
% Inhibition of Specific Binding (HTCA; 50 pg/ml, Log10 Dilution -3.5): 0%
% Inhibition of Specific Binding (HTCA; 500 pg/ml ACTH in FCS, Log10 Dilution 0): 85%
Log10 Dilution at which 50% inhibition occurred (HTCA; 500 pg/ml serum sample): -2.0
% Inhibition of Specific Binding (HTCA; 500 pg/ml, Log10 Dilution -0.5): 90%
% Inhibition of Specific Binding (HTCA; 500 pg/ml, Log10 Dilution -1.0): 77%
% Inhibition of Specific Binding (HTCA; 500 pg/ml, Log10 Dilution -1.5): 57%
% Inhibition of Specific Binding (HTCA; 500 pg/ml, Log10 Dilution -2.0): 53%
% Inhibition of Specific Binding (HTCA; 500 pg/ml, Log10 Dilution -2.5): 35%
% Inhibition of Specific Binding (HTCA; 500 pg/ml, Log10 Dilution -3.0): 32%
% Inhibition of Specific Binding (HTCA; 500 pg/ml, Log10 Dilution -3.5): 20%
Percent Specific Binding (antibody to ACTH; competitor 20 pg/ml): 90%
Percent Specific Binding (antibody to ACTH; competitor 50 pg/ml): 77.5%
Percent Specific Binding (antibody to ACTH; competitor 100 pg/ml): 62.2%
Percent Specific Binding (antibody to ACTH; competitor 200 pg/ml): 42%
Percent Specific Binding (antibody to ACTH; competitor 500 pg/ml): 21.6%
Compound: ACTH: Synthetic ACTH, fragment 1-24, obtained from Organon; unlabelled ACTH of RIA kit in later examples
effect on binding to Y-1 cells, absorbancy at 405 nM (in words) [1]: blocked binding of the anti-HTCA in a dose dependent manner
Corticosterone equivalents ([2]; Experiment 1): 1.08 µg/mL
Corticosterone equivalents ([2]; Experiment 2): 1.42 µg/mL

Compound: QRDKGRLALLGGHEPAV [gamma-odne, H2 N--gln--arg--asp--lys--gly--arg--leu--ala--leu--leu--gly--gly--his--glu--pro--ala--val--COOH]
gamma-endorphin binding to coated wells, absorbance at 405 nM (in words) (bovine gamma-endorphin): significantly bound
inhibition at 100 µM ([3]; 10^-4 M): 75 ± 0.6%
inhibition at 10 µM ([3]; 10^-5 M): 36 ± 2.1%
inhibition at 1 µM ([3]; 10^-6 M, 30 min preincubation with 10^-11 M label): 24.7 ± 3.9%

Compound: C=CCN1CC[C@]23c4c5ccc(O)c4O[C@H]2C(=O)CC[C@@]3(O)[C@H]1C5 [naloxone]
reversal of serum-induced catatonia (in words) (female ICR mice): reversed
